Assay results taken from patent publication US20100222311A1, “SOLID FORMULATIONS OF CRYSTALLINE COMPOUNDS” (PURDUE RESEARCH FOUNDATION, priority 2007, published 2010).

What was measured:
[1] = Dissolution test, USP paddle apparatus, UV quantification of active pharmaceutical ingredient release; format: physicochemical; conditions: water, 37° C., paddle 50 rpm; pure drug powder
Method: Pre-mixed, dry powder materials (10% griseofulvin in α-mannitiol or 50% griseofulvin in α-mannitiol) were extruded using a production scale extruder (Leistritz Mikro GL 27-28D, Leistritz, Nuermber, Germany). […] The shear rate was varied on two levels during extrusion by varying the barrel length, the number of die holes and screw configuration. The extrudates were characterized by a dissolution test in accordance to the preliminary experiments (see FIG. 10). The dissolution tests were performed in a paddle apparatus (VK7030, Varian, Cary, N.C., USA) in accordance with the USP at 50 rpm. Six samples of each batch were tested in water at 37° C. as dissolution media. For the dissolution test, the extrudates were cut in small pieces of approximately 2 mg. The active pharmaceutical ingredient release was quantified with a UV-photometer (DU 640, Beckman, Fellerton, USA; Cary 300, Varian, Victoria, Australia) using different wavelengths (griseofulvin 296 nm, phenytoin 220 nm and spironolactone 243 nm) for 120 min using a cuvette with a 50 mm path length.

[2] = X-Ray diffraction, crystallinity of extrudates; format: physicochemical; conditions: excipient extruded alone
Method: The crystal structure was characterized by X-Ray diffraction (LabX XRD6000, Shimadzu, Columbia, Md., USA). […] The powdered samples were placed in aluminum holders and measured in the reflection mode from 10 to 40° 2θ. The scanning rate was 5°/min using a sampling pitch of 0.02°. Each sample was measured in duplicate.

COC1=CC(=O)C[C@@H](C)[C@]12Oc1c(Cl)c(OC)cc(OC)c1C2=O [griseofulvin]
time to attain 50% release [1]: six

OC[C@@H](O)[C@@H](O)[C@H](O)[C@@H](O)CO [Sorbitol, sorbitol]
crystallization after extrusion, in words [2]: still predominantly amorphous after 24 h

OC[C@@H](O)[C@@H](O)[C@@H](O)CO [adonitol]
crystallization after extrusion, in words [2]: rapid crystallization

C[C@H](O)C(=O)O [L-(+)-lactic acid, L-(+)-Lactic acid]
time within which crystallization was completed [2]: ≤ 24 h
